Data reported in patent US20260325540A1 (priority 2023, published 2026).
pIC50: −log10 of the molar value.

Columns and labels:
SARS-CoV-2 3CLpro = SARS-CoV-2 3CLpro (Severe acute respiratory syndrome coronavirus 2, UniProt P0DTD1); assay: FRET based protease assay, SARS-CoV-2 3CL; type: biochemical, SARS-CoV-2 (strain BetaCoV/Wuhan/WIV04/2019)
MERS-CoV 3CLpro = MERS-CoV 3CLpro (Middle East respiratory syndrome-related coronavirus, UniProt K9N638); assay: biochemical; settings: MERS IC50, 75 nM MERS-CoV 3CLpro, 6 μM peptide 1 substrate, 25° C., 1.5 hrs, pH 7.5
MERS-CoV 3CLpro, sequence (K9N638 3248-3553 limits assumed): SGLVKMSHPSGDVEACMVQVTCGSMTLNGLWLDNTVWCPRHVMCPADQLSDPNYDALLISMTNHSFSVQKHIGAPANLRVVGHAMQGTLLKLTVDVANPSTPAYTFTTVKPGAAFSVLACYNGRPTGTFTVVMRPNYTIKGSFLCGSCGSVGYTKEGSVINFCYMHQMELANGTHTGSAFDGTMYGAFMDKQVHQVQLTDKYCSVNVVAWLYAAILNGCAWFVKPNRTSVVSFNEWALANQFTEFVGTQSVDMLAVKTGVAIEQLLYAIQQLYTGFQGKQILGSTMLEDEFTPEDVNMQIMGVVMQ

Row | SMILES | pIC50 (SARS-CoV-2 3CLpro) | pIC50 (MERS-CoV 3CLpro)
1 | CC(C)C[C@@H]1NC(=O)CCCC[C@H]2CNC(=O)[C@H]2C[C@@H](C=O)NC1=O [Example 2] | 4.70 to 6.00 | < 4.70
2 | CC1(C)[C@@H]2[C@H]3C(=O)N[C@H](C#N)C[C@@H]4C(=O)NC[C@@H]4CCCC[C@H](Nc4ccnc(C(F)(F)F)n4)C(=O)N3C[C@@H]21 [Example 164] | > 7.00 | 6.00 to 7.00
3 | CCC(C)(C)[C@@H]1NC(=O)[C@@H](NC(=O)OC(C)(C)C)CCCC[C@H]2CNC(=O)[C@H]2C[C@@H](C#N)NC1=O [Example 145] | 4.70 to 6.00 | 4.70 to 6.00
4 | CC1(C)[C@@H]2[C@H]3C(=O)N[C@H](C#N)C[C@@H]4C(=O)NC[C@@H]4CCCC[C@H](NC(=O)C45CC(C(F)(F)F)(C4)C5)C(=O)N3C[C@@H]21 [Example 119] | > 7.00 | > 7.00
5 | CC1(C)[C@@H]2[C@H]3C(=O)N[C@H](C#N)C[C@@H]4C(=O)NC[C@@H]4/C=C/CC[C@H](NC(=O)C(F)(F)F)C(=O)N3C[C@@H]21 [Example 108] | > 7.00 | > 7.00
6 | CC(C)(C)NC(=O)[C@H]1CCCC[C@H]2CNC(=O)[C@H]2C[C@@H](C#N)NC(=O)[C@@H]2[C@@H]3[C@H](CN2C1=O)C3(C)C [Example 167] | 6.00 to 7.00 | 4.70 to 6.00
7 | CC1(C)[C@@H]2[C@H]3C(=O)N[C@H](C#N)C[C@@H]4C(=O)NCC[C@@H]4CCCC[C@H](NC(=O)c4ccc(F)cc4F)C(=O)N3C[C@@H]21 [Example 129] | > 7.00 | > 7.00
8 | CC(C)(C)CC(=O)N[C@H]1CCCC[C@H]2CNC(=O)[C@H]2C[C@@H](C#N)NC(=O)[C@@H]2[C@@H]3[C@H](CN2C1=O)C3(C)C [Example 73] | > 7.00 | > 7.00
9 | CC1(C)[C@@H]2[C@H]3C(=O)N[C@H](C#N)C[C@@H]4C(=O)NC[C@@H]4CCCC[C@H](N)C(=O)N3C[C@@H]21 [Example 161] | 6.00 to 7.00 | 4.70 to 6.00
10 | CC(C)C[C@@H]1NC(=O)CCCCCC[C@H]2CNC(=O)[C@H]2C[C@@H](C=O)NC1=O [Example 45] | 6.00 to 7.00 | 4.70 to 6.00
11 | CO[C@@H]1C[C@H]2C(=O)N[C@H](C#N)C[C@@H]3C(=O)NC[C@@H]3CCCC[C@H](NC(=O)OC(C)(C)C)C(=O)N2C1 [Example 147] | > 7.00 | 6.00 to 7.00
12 | CC(C)(C)OC(=O)N[C@H]1CCCC[C@H]2CNC(=O)[C@H]2C[C@@H](C#N)NC(=O)[C@@H]2CC3(CCN2C1=O)CC3 [Example 132] | > 7.00 | 6.00 to 7.00
13 | CC(C)(C)NC(=O)[C@@H]1CCCC[C@H]2CNC(=O)[C@H]2C[C@@H](C#N)NC(=O)[C@@H]2[C@@H]3[C@H](CN2C1=O)C3(C)C [Example 166] | 4.70 to 6.00 | < 4.70
14 | CC(C)C[C@@H]1NC(=O)[C@@H](NC(=O)C(C)(C)C)CCCC[C@H]2CNC(=O)[C@H]2C[C@@H](C#N)NC1=O [Example 44] | > 7.00 | 6.00 to 7.00
15 | N#C[C@@H]1C[C@@H]2C(=O)NC[C@@H]2CCCC[C@H](NC(=O)OC2CCCC2)C(=O)N2C[C@@H]3CCC[C@@H]3[C@H]2C(=O)N1 [Example 94] | > 7.00 | > 7.00
16 | CC1(C)[C@@H]2[C@H]3C(=O)N[C@H](C#N)C[C@@H]4C(=O)NC[C@@H]4CCCC[C@H](NC(=O)c4ccc(F)cc4F)C(=O)N3C[C@@H]21 [Example 103] | > 7.00 | > 7.00
17 | CC1(C)[C@@H]2[C@H]3C(=O)N[C@H](C#N)C[C@@H]4C(=O)NC[C@@H]4CCCC[C@H](NC(=O)C4CCCCC4)C(=O)N3C[C@@H]21 [Example 77] | > 7.00 | > 7.00
18 | CC(C)(C)C(=O)N[C@H]1CCC[C@H]2CCNC(=O)[C@@H]2C[C@@H](C#N)NC(=O)[C@@H]2[C@@H]3[C@H](CN2C1=O)C3(C)C [Example 66] | > 7.00 | 6.00 to 7.00
19 | CC(C)(F)C[C@@H]1NC(=O)[C@@H](NC(=O)OC(C)(C)C)CCCC[C@H]2CNC(=O)[C@H]2C[C@@H](C#N)NC1=O [Example 138] | 6.00 to 7.00 | 6.00 to 7.00
20 | CC(C)(C)C(=O)N[C@H]1CCCC[C@H]2CNC(=O)[C@H]2C[C@@H](C#N)NC(=O)[C@@H]2[C@@H]3[C@H](CN2C1=O)C3(C)C [Example 55] | > 7.00 | 6.00 to 7.00
21 | CC(C)C[C@@H]1NC(=O)CCCC[C@H]2CNC(=O)[C@@H]2C[C@@H](C=O)NC1=O [Example 4] | > 7.00 | 6.00 to 7.00

Row | SMILES | pIC50 (SARS-CoV-2 3CLpro) | pIC50 (MERS-CoV 3CLpro)
22 | CC(C)C[C@@H]1NC(=O)[C@@H](NC(=O)OC(C)(C)C)CCC[C@@H]2CNC(=O)[C@@H]2C[C@@H](C=O)NC1=O [Example 16] | 6.00 to 7.00 | 4.70 to 6.00
23 | CC1(C)[C@@H]2[C@H]3C(=O)N[C@H](C#N)C[C@@H]4C(=O)NC[C@@H]4CCCC[C@H](NC(=O)C(F)(F)F)C(=O)N3C[C@@H]21 [Example 87] | > 7.00 | > 7.00
24 | CC(C)C[C@@H]1NC(=O)[C@@H](Cc2ccccc2)CCC[C@H]2CNC(=O)[C@@H]2C[C@@H](C#N)NC1=O [Example 27] | 4.70 to 6.00 | 4.70 to 6.00
25 | CC1(C)[C@@H]2[C@H]3C(=O)N[C@H](C#N)C[C@@H]4C(=O)NC[C@@H]4CCCC[C@H](NC(=O)c4ccc(F)c(C(F)(F)F)c4)C(=O)N3C[C@@H]21 [Example 116] | > 7.00 | > 7.00
26 | CC(C)C[C@@H]1NC(=O)[C@@H](Cc2ccccc2)CCCC[C@H]2CNC(=O)[C@@H]2C[C@@H](C=O)NC1=O [Example 37] | > 7.00 | 6.00 to 7.00
27 | CC(C)(C)C[C@@H]1NC(=O)[C@@H](NC(=O)c2ccc(Cl)c(Cl)c2)CCCC[C@H]2CNC(=O)[C@H]2C[C@@H](C#N)NC1=O [Example 136] | > 7.00 | > 7.00
28 | CC(C)(C)C(=O)N[C@H]1CCCC[C@H]2CNC(=O)[C@@H]2C[C@@H](C#N)NC(=O)[C@@H]2[C@@H]3[C@H](CN2C1=O)C3(C)C [Example 67] | 6.00 to 7.00 | 6.00 to 7.00
29 | CC(C)(C)OC(=O)N[C@H]1CC/C=C/[C@H]2CNC(=O)[C@H]2C[C@@H](C#N)NC(=O)[C@@H]2[C@H]3CCC[C@H]3CN2C1=O [Example 112] | > 7.00 | 6.00 to 7.00
30 | CC1(C)[C@@H]2[C@H]3C(=O)N[C@H](C#N)C[C@@H]4C(=O)NCC[C@@H]4CCCC[C@H](NC(=O)C45CC(C(F)(F)F)(C4)C5)C(=O)N3C[C@@H]21 [Example 135] | 6.00 to 7.00 | > 7.00
31 | CC1(C)[C@@H]2[C@H]3C(=O)N[C@H](C#N)C[C@@H]4C(=O)NC[C@@H]4CCCC[C@H](NS(=O)(=O)C4CC4)C(=O)N3C[C@@H]21 [Example 156] | > 7.00 | > 7.00
32 | CC(C)(C)OC(=O)N[C@H]1CCCC[C@H]2CCNC(=O)[C@H]2C[C@@H](C#N)NC(=O)[C@@H]2[C@@H]3[C@H](CN2C1=O)C3(C)C [Example 110] | > 7.00 | 6.00 to 7.00
33 | CC(C)(C)C[C@@H]1NC(=O)[C@@H](NC(=O)c2ccc(F)c(C(F)(F)F)c2)CCCC[C@H]2CNC(=O)[C@H]2C[C@@H](C#N)NC1=O [Example 142] | 6.00 to 7.00 | 6.00 to 7.00
34 | CC1(C)[C@@H]2[C@H]3C(=O)N[C@H](C#N)C[C@@H]4C(=O)NC[C@@H]4CCCC[C@H](NC(=O)c4ccc(F)cc4C(F)(F)F)C(=O)N3C[C@@H]21 [Example 139] | > 7.00 | > 7.00
35 | CC(C)C[C@H]1C(=O)N[C@H](C#N)C[C@@H]2C(=O)NC[C@@H]2CCCC[C@H](NC(=O)C(C)(C)C)C(=O)N1C [Example 57] | 6.00 to 7.00 | 4.70 to 6.00
36 | CC1(C)[C@@H]2[C@H]3C(=O)N[C@H](C#N)C[C@@H]4C(=O)NC[C@@H]4CCCC[C@H](NC(=O)C4CCC4)C(=O)N3C[C@@H]21 [Example 76] | > 7.00 | 6.00 to 7.00
37 | CC(C)(C)OC(=O)N[C@H]1CC/C=C\[C@H]2CCNC(=O)[C@H]2CC(C#N)NC(=O)[C@@H]2[C@H]3CCC[C@H]3CN2C1=O (stereo partly shown) [Example 97] | > 7.00 | 6.00 to 7.00
38 | CC1(C)[C@@H]2[C@H]3C(=O)N[C@H](C#N)C[C@@H]4C(=O)NC[C@@H]4CCCC[C@H](NC(=O)C45CCC(C4)C5)C(=O)N3C[C@@H]21 [Example 148] | > 7.00 | 6.00 to 7.00
39 | CN1C(=O)[C@@H](NC(=O)C(C)(C)C)CCCC[C@H]2CNC(=O)[C@H]2C[C@@H](C#N)NC(=O)[C@@H]1CC(C)(C)C [Example 78] | > 7.00 | 4.70 to 6.00
40 | CC(C)C[C@@H]1NC(=O)[C@@H](Cc2cccc(C(F)(F)F)c2)CCCC[C@H]2CNC(=O)[C@H]2C[C@@H](C#N)NC1=O [Example 40] | 4.70 to 6.00 | 4.70 to 6.00
41 | CC(C)(C)C[C@@H]1NC(=O)[C@@H](NC(=O)C2(C(F)(F)F)CC2)CCCC[C@H]2CNC(=O)[C@H]2C[C@@H](C#N)NC1=O [Example 149] | > 7.00 | 6.00 to 7.00
